{
  "source": "patent EP4309500B1",
  "about": "“PEROXIDASE BASED BIOCONTROL AGENTS” (Acies Bio d.o.o., priority 2022, dated 2024)",
  "key": {"[1]": {"test_system": "HydPOXs, HydPOX peroxidase without proregion (amino acids 117 to 659 of SEQ ID NO: 1), SEQ ID NO: 18", "settings": "ABTS 0.025 - 5 mM, 6.45 nM peroxidase, 100 µM H2O2, 50 mM sodium acetate buffer pH 5.0, 25 °C (Example 12)", "description": "(§1) The assays were performed in triplicates on a TECAN microtiter plate reader in a total of 200 µL. […] The oxidation reaction was read for 30 min at 25 °C."}, "[2]": {"test_system": "LspPOX, peroxidase from Lyngbya sp. (strain PCC 8106), mature protein amino acids 117-661 of SEQ ID NO: 12", "settings": "ABTS 0.025 - 5 mM, 6.45 nM peroxidase, 100 µM H2O2, 50 mM sodium acetate buffer pH 5.0, 25 °C (Example 12)", "description": "as §1"}, "[3]": {"test_system": "LspPOX, peroxidase from Lyngbya sp. (strain PCC 8106), mature protein amino acids 117-661 of SEQ ID NO: 12", "settings": "ABTS 0.025 - 10 mM, 10 nM peroxidase, H2O2, 50 mM phosphate buffer pH 6.0, 25 °C (Example 4)", "description": "(§2) The reaction in presence of H2O2 can be easily measured on microplate reader.\nThe oxidation reaction was read for 30 min at 25 °C. […] The concentration of the added H2O2 solution was 200 µM."}, "[4]": {"test_system": "LspPOX, peroxidase from Lyngbya sp. (strain PCC 8106), mature protein amino acids 117-661 of SEQ ID NO: 12", "settings": "ABTS 0.025 - 10 mM, 10 nM peroxidase, 100 µM H2O2, 50 mM phosphate buffer pH 6.0, 25 °C, optimized fitting (Example 4.1)", "description": "as §2\nThe oxidation reaction was read for 30 min at 25 °C."}, "[5]": {"target": "T1, LpoPOX, bovine lactoperoxidase, commercial protein, SEQ ID NO: 16 (lacks the propeptide region) (Bos taurus, UniProt P80025)", "T1 construct": "purchased", "assay": "Thymol blue assay (halogenation assay), kinetics at 0.1 mM H2O2 (Example 13)", "assay_type": "biochemical", "settings": "KI 0.03 - 4 mM, 0.1 mM H2O2, 100 µM thymol blue, 1 µg/ml peroxidase", "quoted_text": "(§3) The bacterial peroxidases (HydPOX, HydPOXs, OkePOXs) were compared to LpoPOX and LspPOX under these modified conditions.\n(§4) The enzymatic reactions were performed at room temperature for 30 min in clear flat-bottomed microplate wells containing 200 µl 0.1 M phosphate buffer pH 7.2, 100 µM thymol blue, 1 µg/ml of recombinant bacterial peroxidase (or commercial LpoPOX as defined in SEQ ID NO: 16), H2O2 and a reducing agent such as I^- (general assay setup).\n(§5) Kinetic constants were calculated using a nonlinear regression fitting curve (Figure 9A). […] For this reason, K0.5 values are used indicating the substrate concentration at which half maximal velocity/half-saturation is achieved."}, "[6]": {"test_system": "LspPOX, peroxidase from Lyngbya sp. (strain PCC 8106), mature protein amino acids 117-661 of SEQ ID NO: 12", "assay": "Thymol blue assay (halogenation assay), kinetics at 0.1 mM H2O2 (Example 13)", "assay_type": "biochemical, Lyngbya sp. PCC 8106", "settings": "KI 0.03 - 4 mM, 0.1 mM H2O2, 100 µM thymol blue, 1 µg/ml peroxidase", "quoted_text": "as §3, §4, §5"}, "[7]": {"test_system": "HydPOXs, HydPOX peroxidase without proregion (amino acids 117 to 659 of SEQ ID NO: 1), SEQ ID NO: 18", "settings": "KI 0.03 - 4 mM, 0.1 mM H2O2, 100 µM thymol blue, 1 µg/ml peroxidase, 0.1 M phosphate buffer pH 7.2, room temperature (Example 13)", "quoted_text": "as §3, §4, §5"}, "[8]": {"test_system": "OkePOXs, functional fragment of OkePOX heme peroxidase from Okeania hirsuta (amino acids 117 to 659 of SEQ ID NO: 11), SEQ ID NO: 25 or 27", "settings": "KI 0.03 - 4 mM, 0.1 mM H2O2, 100 µM thymol blue, 1 µg/ml peroxidase", "quoted_text": "as §3, §4, §5"}, "[9]": {"settings": "0.1 M phosphate buffer pH 7.2, room temperature (Example 13)"}, "[10]": {"settings": "0.1 M phosphate buffer pH 7.2, room temperature, sigmoidal fitting (Example 13), 30 min, read-out: K0.5"}},
  "note": "Read-outs that look alike come from different tables or passages of the source.",
  "data": [
    {"smiles": "CCn1c(=NN=c2sc3cc(S(=O)(=O)O)ccc3n2CC)sc2cc(S(=O)(=O)O)ccc21", "note": "[ABTS, 2,2'-azino-bis (3-ethylbenzothiazoline-6-sulfonic acid)]", "values": [
      {"measurement": "kcat", "setting": "[1]", "value": 95, "unit": "s^1"},
      {"measurement": "Km", "setting": "[2]", "value": 1090, "unit": "µM"},
      {"measurement": "kcat", "setting": "[2]", "value": 57, "unit": "s^1"},
      {"measurement": "Km", "setting": "[3]", "value": 237, "unit": "µM"},
      {"measurement": "kcat", "setting": "[3]", "value": "7,45 s^-1"},
      {"measurement": "Km", "setting": "[4]", "value": 180, "unit": "µM"},
      {"measurement": "kcat", "setting": "[4]", "value": 6.3, "unit": "s⁻¹"}
    ]},
    {"smiles": "[I-].[K+]", "note": "[KI, potassium iodide]", "values": [
      {"measurement": "kcat", "setting": "[5]; [9]", "value": 16.5, "unit": "s⁻¹"},
      {"measurement": "kcat/K0.5", "setting": "[5]; [9]", "value": 12500, "unit": "M⁻¹ s⁻¹"},
      {"measurement": "Km", "setting": "[5]; [10]", "value": 1320, "unit": "µM"},
      {"measurement": "kcat", "setting": "[6]; [9]", "value": 14.7, "unit": "s⁻¹"},
      {"measurement": "kcat/K0.5", "setting": "[6]; [9]", "value": 10600, "unit": "M⁻¹ s⁻¹"},
      {"measurement": "Km", "setting": "[6]; [10]", "value": 1390, "unit": "µM"},
      {"measurement": "kcat", "setting": "[7]", "value": 10.6, "unit": "s⁻¹"},
      {"measurement": "kcat/K0.5", "setting": "[7]", "value": 85100, "unit": "M⁻¹ s⁻¹"},
      {"measurement": "kcat", "setting": "[8]; [9]", "value": 13.7, "unit": "s⁻¹"},
      {"measurement": "kcat/K0.5", "setting": "[8]; [9]", "value": 118600, "unit": "M⁻¹ s⁻¹"},
      {"measurement": "Km", "setting": "[8]; read-out: K0.5, 0.1 M phosphate buffer pH 7.2, room temperature, sigmoidal fitting (Example 13), 30 min", "value": 120, "unit": "µM"}
    ]}
  ]
}
